Data from patent US4452778A, “Synergistic antibacterial compositions and method of treatment of infections caused by multiple antibiotic-resistant organisms” (Eli Lilly and Company, priority 1981, dated 1984).
Read-outs that look alike come from different tables or passages of the source.

Legend:
[1] = tested on: Proteus mirabilis; assay: Checkerboard broth dilution synergy study (mic); format: cell-based; conditions: Proteus mirabilis; Table II, strain Allen; read-out: mic, drug alone
[2] = cited from earlier work; for mean serum concentration: end of injection
[3] = tested on: Pseudomonas aeruginosa; assay: Checkerboard broth dilution synergy study (mic); format: cell-based; conditions: Table II; for MIC: Pseudomonas aeruginosa, read-out: mic, drug alone
[4] = tested on: Proteus rettgeri; assay: Checkerboard broth dilution synergy study (mic); format: cell-based; conditions: Providencia rettgeri, Table II, strain 65; read-out: mic, drug alone
[5] = tested on: E. coli; assay: Checkerboard broth dilution synergy study (mic); format: cell-based; conditions: Table II; for MIC: Escherichia coli, read-out: mic, drug alone
[6] = tested on: Klebsiella pneumoniae; assay: Checkerboard broth dilution synergy study (mic); format: cell-based; conditions: Table II; for MIC: Klebsiella pneumoniae, read-out: mic, drug alone
[7] = tested on: Serratia marcescens; assay: Checkerboard broth dilution synergy study (mic); format: cell-based; conditions: Table II; for MIC: Serratia marcescens, read-out: mic, drug alone
[8] = tested on: Proteus vulgaris; assay: Checkerboard broth dilution synergy study (mic); format: cell-based; conditions: Proteus vulgaris, Table II, read-out: mic, drug alone
[9] = tested on: E. cloacae; assay: Checkerboard broth dilution synergy study (mic); format: cell-based; conditions: Table II; for MIC: Enterobacter cloacae, read-out: mic, drug alone

In the case of `CCN1CCN(C(=O)N[C@@H](C(=O)N[C@@H]2C(=O)N3[C@@H]2SC(C)(C)[C@@H]3C(=O)O)c2ccccc2)C(=O)C1=O` [piperacillin, sodium 6-(D(-)-α-(4-ethyl-2,3-dioxo-1-piperazinylcarbonylamino)-α-phenylacetamido]penicillinate], the MIC [1] is listed as > 64 µg/mL, the “mean peak serum concentration” value ([2]; single intramuscular dose 0.5 g) is listed as 4.9 µg/mL and the “mean peak serum concentration” value ([2]; single intramuscular dose 1.0 g) is listed as 13.3 µg/mL. For the same compound, the “mean peak serum concentration” value ([2]; single intramuscular dose 2.0 g) was 30.2 µg/mL, the mean serum concentration ([2]; single intravenous bolus 1.0 g) was 70.7 µg/mL and the mean serum concentration ([2]; single intravenous bolus 2.0 g) was 199.5 µg/mL. The mean serum concentration ([2]; single intravenous bolus 4.0 g) was 330.7 µg/mL, the mean serum concentration ([2]; single intravenous bolus 6.0 g) was 451.8 µg/mL and the MIC ([3]; strain 84) was 64 µg/mL. For the same compound, the MIC ([3]; strain 366) was > 128 µg/mL, the MIC ([3]; strain 424) was > 128 µg/mL and the MIC ([3]; strain 447) was > 128 µg/mL. For the same compound, the MIC ([3]; strain 1484) was 64 µg/mL, the MIC ([3]; strain Davis) was > 64 µg/mL and the “mic of each drug in combination I + P” value ([3]; strain 84) was 4 µg/mL. For the same compound, the “mic of each drug in combination I + P” value ([3]; strain 366) was 16 µg/mL, the “mic of each drug in combination I + P” value ([3]; strain 424) was 0.5 µg/mL and the “mic of each drug in combination I + P” value ([3]; strain 447) was 0.5 µg/mL. The “mic of each drug in combination I + P” value ([3]; strain 1484) was 8 µg/mL, the “mic of each drug in combination I + P” value ([3]; strain Davis) was 16 µg/mL and the MIC [4] was 64 µg/mL. The MIC ([5]; strain 46-2) was > 64 µg/mL, the MIC ([5]; strain 77-3) was > 64 µg/mL and the MIC ([5]; strain 136-3) was > 64 µg/mL. The MIC ([5]; strain 1260) was > 64 µg/mL, the MIC ([5]; strain 1262) was > 64 µg/mL and the MIC ([5]; strain Briley) was > 64 µg/mL. The MIC ([5]; strain Dill) was 32 µg/mL, the “mic of each drug in combination I + P” value ([5]; strain 46-2) was 2 µg/mL and the “mic of each drug in combination I + P” value ([5]; strain 1253) was 4 µg/mL. The “mic of each drug in combination I + P” value ([5]; strain 1262) was 64 µg/mL, the “mic of each drug in combination I + P” value ([5]; strain 1415) was 2 µg/mL and the “mic of each drug in combination I + P” value ([5]; strain Briley) was 32 µg/mL. The MIC ([6]; strain 130) was > 64 µg/mL, the MIC ([6]; strain 214-1) was > 64 µg/mL and the MIC ([6]; strain 463) was > 64 µg/mL. For the same compound, the MIC ([6]; strain 512) was > 64 µg/mL, the MIC ([6]; strain 933) was > 64 µg/mL and the MIC ([6]; strain 1204-2) was > 64 µg/mL. The “mic of each drug in combination I + P” value ([6]; strain 214-1) was 8 µg/mL, the “mic of each drug in combination I + P” value ([6]; strain 463) was 16 µg/mL and the “mic of each drug in combination I + P” value ([6]; strain 512) was 32 µg/mL. For the same compound, the “mic of each drug in combination I + P” value ([6]; strain 1204-2) was 2 µg/mL, the MIC ([7]; strain 100) was > 64 µg/mL and the MIC ([7]; strain 302-2) was > 64 µg/mL. For the same compound, the MIC ([7]; strain 796) was > 64 µg/mL, the MIC ([7]; strain 14142) was > 64 µg/mL and the MIC ([7]; strain Townsend) was > 64 µg/mL. The “mic of each drug in combination I + P” value ([7]; strain 100) was 32 µg/mL, the “mic of each drug in combination I + P” value ([7]; strain 302-2) was 8 µg/mL and the “mic of each drug in combination I + P” value ([7]; strain 796) was 4 µg/mL. For the same compound, the “mic of each drug in combination I + P” value ([7]; strain 14142) was 8 µg/mL, the “mic of each drug in combination I + P” value ([7]; strain Townsend) was 64 µg/mL and the MIC ([8]; strain 363) was > 64 µg/mL. The MIC ([8]; strain Shide) was > 64 µg/mL, the MIC ([9]; strain 1246) was > 64 µg/mL and the MIC ([9]; strain 1253) was > 64 µg/mL. The MIC ([9]; strain 1415) was > 64 µg/mL, the MIC ([9]; strain B293) was > 64 µg/mL and the “mic of each drug in combination I + P” value ([9]; strain 1253) was 32 µg/mL. For the same compound, the “mic of each drug in combination I + P” value ([9]; strain B293) was 16 µg/mL.
